Measured values from patent publication US20260130377A1 (SYNGENTA CROP PROTECTION AG, priority 2022, published 2026).

Tests used:
Microdochium nivale = assay: liquid culture assay, 96 well plate, Microdochium nivale; assay type: cell-based
Procedure: (§1) Cyclothiazomycin C was produced as disclosed in WO2015191789. A stock solution for cyclothiazomycin C was produced in DMSO (max. 10 mg/ml). Malonomicin was produced according to Law et al, 2018 (Nature Catalys is|VOL 1|DECEMBER 2018|977-984). A stock solution of malonomicin was produced in water plus 0.025% Tween®20.
(§2) Assays to test efficacy of mixtures of cyclothiazomycin C in combination with malonomicin on the control of fungal pathogens in a liquid culture assay were designed for a 96 well plate.
(§3) A master plate with 10× concentrated solution of the compound stock solutions diluted in water plus 0.025% Tween20 was prepared. The concentration of DMSO (from the stock of cyclothiazomycin C) and Tween20 was kept constant in all cells of th the master plate. 10 μl was transferred from the master plate to a 96 well test plate. The nutrient broth containing the fungal spores/mycelia fragments was then added to the test plate to give an end concentration of 1× for the tested compounds (as outlined in Table 1). The test plates were incubated in the dark at 24° C. and 96% rh. The inhibition of fungal growth was determined photometrically after ca. 3 days, and percent fungal growth reduction relative to the untreated check was calculated. Efficacy of the mixtures was tested on different fungal species:
Microdochium nivale (EPPO Code: MONGNI)
(§4) Conidia of the fungus from cryogenic storage were directly mixed into nutrient broth (PDB: potato dextrose broth).

[1] = system: a variety of fungal strains; conditions: quoted from WO2015191789, page 31; cited from earlier work
Puccinia recondita [2] = assay: wheat leaf disc assay, Puccinia recondita, preventive spray timing; assay type: in vivo
Procedure: as §1, with “Tween20.” for “Tween®20.”
(§5) Assays to test efficacy of mixtures of cyclothiazomycin C in combination with malonomicin on the control of fungal pathogens in a leaf disc assay were designed for two plates.
(§6) A first set of master plates with 1× concentrated spray solution of the cyclothiazomycin C stock diluted in water with concentrations according to Table 11 or Table 12, respectively, was prepared. Each well contained 2% DMSO and 0.025% Tween20. Accordingly, a second set of master plates with 1× concentrated malonomicin stock diluted in water was prepared. Each well of the second set contained 0.025% Tween20. Leaf segments placed on agar in plates are sprayed with 8 ul of solution from the master plate containing cyclothiazomycin C and the leaf segments were let to dry, followed 2 hours later by 8 ul of solution from the master plate containing malonomicin. After second sprays have dried, leaf segments are infected with fungal spores to obtain a preventive application timing. Alternatively, leaf segments infected one day before spray of the compounds are used, resulting in a curative spray timing. In addition, several plates were produced where leaf segments were sprayed 2× in absence of test compound (with only DMSO and Tween20), representing the untreated check samples. For each leaf segment percent leaf coverage of disease symptoms was assessed. Percent leaf coverage reduction relative to the untreated check was calculated. Efficacy of the mixtures was tested in duplicate. Reported efficacy values are the average of two replicate results.
Puccinia recondita (EPPO Code: PUCCRE) with Preventive Spray Timing.
Wheat (cultivar Kanzler) leaf segments are placed on agar in multiwell plates and sprayed with test solutions (8 ul per well). After drying, the leaf disks are inoculated with a spore suspension of the fungus. After appropriate incubation the activity of a compound is assessed 8 dpi (days after inoculation) as preventive fungicidal activity.

Puccinia recondita [3] = assay: wheat leaf disc assay, Puccinia recondita, curative spray timing; assay type: in vivo
Procedure: as §1, with “Tween20.” for “Tween®20.”
as §5, §6
Puccinia recondita (EPPO Code: PUCCRE) with Curative Spray Timing.
Wheat (cultivar Kanzler) leaf segments are placed on agar in multiwell plates. The leaf disks are then inoculated with a spore suspension of the fungus. One day after inoculation the test solution is sprayed (8 ul per well). After appropriate incubation the activity of a compound is assessed 8 dpi (days after inoculation) as curative fungicidal activity

Fusarium culmorum = assay: liquid culture assay, 96 well plate, Fusarium culmorum; assay type: cell-based
Procedure: as §1, §2, §3
Fusarium culmorum (EPPO Code: FUSACU)
as §4

genus Bacillus = conditions: quoted from WO2015191789, page 31; cited from earlier work
Zymoseptoria tritici = assay: liquid culture assay, 96 well plate, Zymoseptoria tritici; assay type: cell-based
Procedure: as §1, §2, §3
Zymoseptoria tritici (EPPO Code: SEPTTR)
as §4

Botrytis cinerea = assay: liquid culture assay, 96 well plate, Botrytis cinerea; assay type: cell-based
Procedure: as §1, §2, §3
Botrytis cinerea (EPPO Code: BOTRCI)
Conidia of the fungus from cryogenic storage were directly mixed into nutrient broth (Vogel's minimal media).

[4] = cyclothiazomycin C 1.56 ppm solo
[5] = cyclothiazomycin C 3.125 ppm solo
[6] = cyclothiazomycin C 6.25 ppm solo
[7] = cyclothiazomycin C 12.5 ppm solo
[8] = cyclothiazomycin C 100 ppm solo
[9] = cyclothiazomycin C 3.13 ppm solo
[10] = cyclothiazomycin C 200 ppm solo

## C=C1NC(=O)CNC(=O)[C@H](CCCCN)NC(=O)[C@@]2(C)NC(=O)/C(=C/C)NC(=O)[C@H]3CSC(=N3)[C@@H](CC(N)=O)NC(=O)c3ccc(nc3[C@@H](C)NC(=O)[C@@H]3CCCN3C1=O)-c1nc(cs1)C1=N[C@H](CS1)C(=O)NC(=C)c1nc(cs1)-c1nc(cs1)C1=N[C@@H](CS1)C(=O)N[C@@H](C(=O)O)CS2 [cyclothiazomycin C]
Microdochium nivale; [4]
  control of fungal growth: 70%
Microdochium nivale; [5]
  control of fungal growth: 70%
Microdochium nivale; [6]
  control of fungal growth: 70%
Microdochium nivale; [7]
  control of fungal growth: 70%
Microdochium nivale; cyclothiazomycin C 25 ppm solo
  control of fungal growth: 90%
Microdochium nivale; cyclothiazomycin C 50 ppm solo
  control of fungal growth: 90%
Microdochium nivale; [8]
  control of fungal growth: 90%
[1]
  growth inhibitory action toward a variety of fungal strains: none was observed
Puccinia recondita [2]; [9]
  control of fungal growth (% reduction of symtoms on the leaf segment): 0%
Puccinia recondita [2]; [6]
  control of fungal growth (% reduction of symtoms on the leaf segment): 0%
Puccinia recondita [2]; [7]
  control of fungal growth (% reduction of symtoms on the leaf segment): 10%
Puccinia recondita [2]; cyclothiazomycin C 25 ppm solo
  control of fungal growth (% reduction of symtoms on the leaf segment): 95%
Puccinia recondita [2]; cyclothiazomycin C 50 ppm solo
  control of fungal growth (% reduction of symtoms on the leaf segment): 95%
Puccinia recondita [2]; [8]
  control of fungal growth (% reduction of symtoms on the leaf segment): 95%
Puccinia recondita [2]; [10]
  control of fungal growth (% reduction of symtoms on the leaf segment): 100%
Puccinia recondita [3]; [9]
  control of fungal growth (% reduction of symtoms on the leaf segment): 0%
Puccinia recondita [3]; [6]
  control of fungal growth (% reduction of symtoms on the leaf segment): 10%
Puccinia recondita [3]; [7]
  control of fungal growth (% reduction of symtoms on the leaf segment): 0%
Puccinia recondita [3]; cyclothiazomycin C 25 ppm solo
  control of fungal growth (% reduction of symtoms on the leaf segment): 0%
Puccinia recondita [3]; cyclothiazomycin C 50 ppm solo
  control of fungal growth (% reduction of symtoms on the leaf segment): 0%
Puccinia recondita [3]; [8]
  control of fungal growth (% reduction of symtoms on the leaf segment): 0%
Puccinia recondita [3]; [10]
  control of fungal growth (% reduction of symtoms on the leaf segment): 0%
Fusarium culmorum; [4]
  control of fungal growth: 20%
Fusarium culmorum; [5]
  control of fungal growth: 20%
Fusarium culmorum; [6]
  control of fungal growth: 20%
Fusarium culmorum; [7]
  control of fungal growth: 20%
Fusarium culmorum; cyclothiazomycin C 25 ppm solo
  control of fungal growth: 20%
Fusarium culmorum; cyclothiazomycin C 50 ppm solo
  control of fungal growth: 20%
Fusarium culmorum; [8]
  control of fungal growth: 20%
Genus Bacillus
  antimicrobial inhibitory activity: greatest inhibitory activity
Zymoseptoria tritici; [4]
  control of fungal growth: 70%
Zymoseptoria tritici; [5]
  control of fungal growth: 70%
Zymoseptoria tritici; [6]
  control of fungal growth: 70%
Zymoseptoria tritici; [7]
  control of fungal growth: 70%
Zymoseptoria tritici; cyclothiazomycin C 25 ppm solo
  control of fungal growth: 90%
Zymoseptoria tritici; cyclothiazomycin C 50 ppm solo
  control of fungal growth: 90%
Zymoseptoria tritici; [8]
  control of fungal growth: 100%
Botrytis cinerea; [4]
  control of fungal growth: 20%
Botrytis cinerea; [5]
  control of fungal growth: 20%
Botrytis cinerea; [6]
  control of fungal growth: 20%
Botrytis cinerea; [7]
  control of fungal growth: 20%
Botrytis cinerea; cyclothiazomycin C 25 ppm solo
  control of fungal growth: 20%
Botrytis cinerea; cyclothiazomycin C 50 ppm solo
  control of fungal growth: 20%
Botrytis cinerea; [8]
  control of fungal growth: 20%
